Values joined by “and” are separate entries in the source; they are usually repeats but may differ in a detail not shown here. Equal entries are not always repeated.
Assays:
[1] = test system: antigen-positive A431 cells; experiment: In vitro cytotoxicity, MTS/PMS cell proliferation assay, A431; assay type: cell-based, human; conditions: 4 days exposure
Procedure: (§1) For determination of viable cells the Cell Titer 96® AQueous non-radioactive cell proliferation assay (Promega) was used. Five thousand cells per well were seeded into 96-well plates in 90 μl medium without phenole red. Cells were allowed to settle down for 1 to 3 h and then serial dilutions of the immunoconjugate in 10 μl PBS were added. Cells without immunoconjugate served as negative control. Cells were incubated for 4 days at 37° C. in a humified 5% CO2 atmosphere and then 20 μl MTS/PMS were added according to the manufacturer's recommendation. After additional 1 to 4 h incubation at 37° C. the absorbance at 490 nm was recorded using an ELISA plate reader. For each cell line triplicates were analyzed. The percentage of the surviving cell fraction and the IC50 value were calculated using the GraphPad Prism® (Version 3.0) software.
(§2) The in vitro cytotoxicity of BIWI 1 was evaluated using the antigen-positive cell lines A431 and FaDu, and the antigen-negative cell line […]. Cells were exposed to different concentrations of BIWI 1 for 4 days, then stained with MTS/PMS and assayed on an ELISA plate reader. The surviving fractions of cells were then calculated using the GraphPad Prism® software package.

[2] = Tolerability of BIWI 1 monotherapy in nude mice (mouse weight); assay type: in vivo; conditions: FaDu xenografted mice, 21 mg/kg/d BIWI 1
Procedure: In vivo anti-tumor efficacy of BIWI 1 was tested in three nude mouse xenograft models applying antigen-positive human tumors: A431 (ATCC # CRL 1555; epidermoid carcinoma of the vulva), FaDu (ATCC # HTB 43; squamous cell carcinoma of the pharynx), and MDA-MB 453 (ATCC # HTB-131; breast carcinoma). The cells were received from ATCC and cultured in RPMI1640 medium containing 10% fetal calf serum and supplements. 1×10^6 tumors cells were transplanted subcutaneously into the right flank of 6 week old female NMRI-nu/nu mice. Tumor growth was monitored by measuring tumor size. A tumor response was rated as complete response when the tumor completely disappeared at any time after start of treatment. The response was rated as partial response when the tumor volume decreased after treatment but thereafter started regrowing. The tolerability of the treatment was monitored by measuring mouse weight during the observation period.
The tolerability of BIWI 1 monotherapy was determined by monitoring mouse weight during the whole duration of the experiment in the 2 models. The maximum observed average weight loss per group was 6% in FaDu xenografted mice treated with 21 mg/kg/d BIWI 1 (FIG. 5). The weight loss started around day 3 of treatment and lasted until day 10, thereafter animals regained weight and behaved similar as control animals. […]

[3] = test system: antigen-negative cell line A549; experiment: In vitro cytotoxicity, MTS/PMS cell proliferation assay, A549; assay type: cell-based; conditions: A549 cells, highest concentration of BIWI 1 tested (5×1 0-7 M), 4 days
Procedure: as §1, §2

MDA-MB-453 tumors [4] = experiment: BIWI 1 combination with doxorubicin in nude mice xenografted with MDA-MB-453 tumors; assay type: in vivo, mouse
Procedure: Similar experiments as outlined under Section 2.6 were undertaken in a human breast carcinoma xenograft model. Experiments were performed using nude mice xenografted subcutaneously with the human breast carcinoma cell line MDA-MBA53. […] The efficacy of these combinations was compared to those of the respective monotherapies by i) analysing the tumor volumes over time and ii) by determining the time for tumors to reach a certain size (tumor growth delay).
The dilutions were prepared freshly for each application or stored at +4° C. during the whole treatment period. […] Doxorubicin (Doxorubicin “Ebewe”®, 2 mg/ml) was diluted in PBS. 200 μl of solutions with different concentrations were injected into the tail vein. Docetaxel (Taxotere®, Aventis, 10 mg/ml) was diluted in 0.9% NaCl. 200 μl of solutions with different concentrations were injected into the tail vein.
The xenograft model was handled slightly different as outlined under Section 2.1. Briefly, 1×10^7 MDA-MB-453 cells (ATCC No. HTB-131) were injected into the mammary fat pad of female NMRI nu/nu mice. After reaching a volume of approximately 1000 mm^3 tumors were excised, cut into 4×4 mm pieces and passaged further subcutaneously. Tumor fragments were cryoconserved in 90% RPMI 1640/10% dimethylsulfoxide (slow freezing process down to −80° C., storage in liquid nitrogen). For further passaging, frozen tumor fragments were thawed, washed 3 times in PBS and implanted subcutaneously into the right and left flanks of a 4-5 female NMRI nu/nu mice. Tumors of these mice were then used to prepare the animals for a therapy experiment. Tumors were excised with a size of approximately 10 mm in diameter, cut into 2×2 mm pieces and implanted subcutaneously into the right flank of 6-8 week old female NMRI nu/nu mice. Approximately twice as many animals as needed for the experiment were prepared. When tumors reached a size of 5-10 mm in diameter (10-14 days after implantation), animals were randomised and treatments were started. Animals were obtained from Harlan (Germany) or M&B (Denmark). Tumor sizes and body weights were recorded as described in Section 2.7.

MDA-MB-453 tumors [5] = experiment: BIWI 1 combination with capecitabine in nude mice xenografted with MDA-MB-453 tumors; assay type: in vivo, mouse; conditions: BIWI 1 75 μg/kg DM1 i.v. q7dx3
Procedure: The xenograft model MDA-MB-453 was handled as in Section 2.8.
BIWI 1 solution (protein concentration 2.95 mg/ml, 53.6 μg DM1/ml, 3.7 molecules DM1/molecule antibody) was diluted in PBS to a DM1 concentration of 75 μg/kg body weight. […] The antibody solution was injected into the tail vein with an injection volume of 200 μl for a 25 g mouse. In the control groups without BIWI 1 treatment animals were injected i.v. with PBS. BIWI 1 was given i.v. into the tail vein at a dose of 75 μg DM1/kg once weekly, for three weeks. Capecitabine (150 mg tablets, Roche) was given intragastrically (by gavage needle, as a suspension in water) at a dose of 375 or 500 mg/kg during three weeks on 5 consecutive days per week.
To assess the efficacy of BIMI 1 in combination with capecitabine, non-curative doses of both drugs were tested as single agents or in combination in nude mice xenografted with MDA-MB453 tumors.
For the combinations experiments BIWI 1 with 75 μg/kg DM1 was combined with 375 or 500 mg/kg capecitabine.

Substance: BIWI 1
- IC50 [1]: ~76 nM
- maximum observed average weight loss per group [2]: 6%
- surviving fraction [3]: 50%
- GDF4 (MDA-MB-453 tumors [4]; BIWI 1 50 μg/kg DM1 i.v. q7dx4): 1.0
- T/C (d13) (MDA-MB-453 tumors [4]; BIWI 1 50 μg/kg DM1 i.v. q7dx4): 68%
- GDF4 (MDA-MB-453 tumors [4]; BIWI 1 75 μg/kg DM1 i.v. q7dx4): 1.6
- T4T (MDA-MB-453 tumors [4]; BIWI 1 75 μg/kg DM1 i.v. q7dx4): 13 days and 13.0 days
- T/C (d13) (MDA-MB-453 tumors [4]; BIWI 1 75 μg/kg DM1 i.v. q7dx4): 59%
- tumor bearing animals cured (MDA-MB-453 tumors [4]; BIWI 1 100 μg/kg DM1, q7dx4): 4/6
- GDF4 (MDA-MB-453 tumors [5]): 2.6
- T4T (MDA-MB-453 tumors [5]): 26.9 days
- T/C (d25) (MDA-MB-453 tumors [5]): 31%
